Experimental data taken from US9708314B2, “Heterocyclic amide compound” (NISSAN CHEMICAL INDUSTRIES, LTD., priority 2013, dated 2017).

What was measured:
Format in all cases: in vivo
Scirpus juncoides [1] = assay: Test Example 2: herbicidal activity, application during weed generation in submerged conditions; settings: Eighteenth Table; application herbicide amount 320 g/ha
Summary of the method: (§1)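 Mixed sowings in flooded alluvial soil (4 cm water), greenhouse 25-30 °C; emulsifiable concentrate diluted in water applied to the water surface at the 1-2 leaf stage, rate in g/ha. Effect scored three weeks later on a 0-5 scale (5 = ≥90% herbicidal ratio, 0 = ≤5%).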

Monochoria vaginalis [2] = assay: as above; settings: Eighteenth Table; application herbicide amount 320 g/ha
Summary of the method: as §1

[3] = system: Echinochloa oryzacola Vasing.; assay: as above; settings: Eighteenth Table; application herbicide amount 320 g/ha
Summary of the method: as §1

Veronica persica = assay: Test Example 4: herbicidal effect by application to foliage (diluvial soil, plastic box); settings: for R: herbicidal effect on Veronica persica / herbicidal effect, R (Veronica persica): application to foliage; for R: herbicidal effect on Veronica persica: application herbicide amount 320 g/ha; for herbicidal effect, R (Veronica persica): 320 g/ha
Summary of the method: (§2)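 Plants were grown in sterilized diluvial soil in a greenhouse at 25-30° C for 14 days, then sprayed on stems and leaves with water-diluted emulsion formulation at set rates in g/ha. Weed control and crop injury were scored 3 weeks after treatment on a 0-5 herbicidal-ratio scale, from 0 (≤5%) to 5 (≥90%).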

[4] = system: transplanted Oryza sativa; assay: Test Example 1: effect on crop, application before weed generation in submerged conditions; settings: Seventeenth Table; for a: transplanted Oryza sativa (effect on crop grade): Application herbicide amount 320 g/ha; for a (transplanted Oryza sativa) effect on crop grade: application herbicide amount 320 g/ha
Summary of the method: (§3)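 Pre-emergence application to water surface of submerged pots (4 cm depth, alluvial soil) on sowing day, with 2.5-leaf rice transplanted; emulsion diluted to g/ha rates. Grown in greenhouse at 25–30 °C; 0–5 herbicidal/crop-effect score after three weeks.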

Stellaria media = assay: Test Example 4: herbicidal effect by application to foliage (diluvial soil, plastic box); settings: application to foliage; for P: herbicidal effect on Stellaria media: application herbicide amount 320 g/ha; for herbicidal effect, P (Stellaria media): 320 g/ha
Summary of the method: as §2

Amaranthus retroflexus = assay: as above; settings: application to foliage; for N: herbicidal effect on Amaranthus retroflexus: application herbicide amount 320 g/ha; for herbicidal effect, N (Amaranthus retroflexus): 320 g/ha
Summary of the method: as §2

Scirpus juncoides [5] = assay: Test Example 1: herbicidal activity, application before weed generation in submerged conditions; settings: Seventeenth Table; for B: Scirpus juncoides (herbicidal effect grade): Application herbicide amount 320 g/ha; for B (Scirpus juncoides) herbicidal ratio grade: application herbicide amount 320 g/ha
Summary of the method: as §3

Monochoria vaginalis [6] = assay: as above; settings: Seventeenth Table; for C: Monochoria vaginalis (herbicidal effect grade): Application herbicide amount 320 g/ha; for C (Monochoria vaginalis) herbicidal ratio grade: application herbicide amount 320 g/ha
Summary of the method: as §3

Structure (SMILES) | B (Scirpus juncoides) herbicidal ratio grade (Scirpus juncoides [1]) | C (Monochoria vaginalis) herbicidal ratio grade (Monochoria vaginalis [2]) | A (Echinochloa oryzicola Vasing.) herbicidal ratio grade [3] | R (Veronica persica; Application herbicide amount 320 g/ha) | a: transplanted Oryza sativa (effect on crop grade) [4] | P: herbicidal effect on Stellaria media (Stellaria media) | R: herbicidal effect on Veronica persica (Veronica persica) | N: herbicidal effect on Amaranthus retroflexus (Amaranthus retroflexus) | B: Scirpus juncoides (herbicidal effect grade) (Scirpus juncoides [5]) | C: Monochoria vaginalis (herbicidal effect grade) (Monochoria vaginalis [6]) | herbicidal effect, P (Stellaria media) (Stellaria media) | herbicidal effect, R (Veronica persica) (Veronica persica) | herbicidal effect, N (Amaranthus retroflexus) (Amaranthus retroflexus) | a (transplanted Oryza sativa) effect on crop grade [4] | B (Scirpus juncoides) herbicidal ratio grade (Scirpus juncoides [5]) | C (Monochoria vaginalis) herbicidal ratio grade (Monochoria vaginalis [6])
Cc1nnc(NC(=O)c2ccc(C(F)(F)F)n3c(CC(=O)NC(C)C)nnc23)o1 [1-061] | 1 (Herbicidal ratio of 5% or more and less than 20%) | 1 (Herbicidal ratio of 5% or more and less than 20%) | 0 (Herbicidal ratio of 5% or less (almost no effect)) | 5 (Herbicidal ratio of 90% or more (almost completely withered)) |  |  |  |  |  |  |  |  |  |  |  | 
C=CCc1nnc2c(C(=O)Nc3nnco3)ccc(C(F)(F)F)n12 [1-158] | 3 (Herbicidal ratio of 40% or more and less than 70%) | 0 (Herbicidal ratio of 5% or less (almost no effect)) | 2 (Herbicidal ratio of 20% or more and less than 40%) |  | 0 (Herbicidal ratio of 5% or less (almost no effect)) | 5 (Herbicidal ratio of 90% or more (almost completely withered)) | 4 (Herbicidal ratio of 70% or more and less than 90%) | 4 (Herbicidal ratio of 70% or more and less than 90%) | 4 (Herbicidal ratio of 70% or more and less than 90%) | 0 (Herbicidal ratio of 5% or less (almost no effect)) |  |  |  |  |  | 
Cc1nnc(NC(=O)c2ccc(C(F)(F)F)n3c(CC(F)(F)F)nnc23)o1 [1-162] | 1 (Herbicidal ratio of 5% or more and less than 20%) | 0 (Herbicidal ratio of 5% or less (almost no effect)) | 3 (Herbicidal ratio of 40% or more and less than 70%) |  | 0 (Herbicidal ratio of 5% or less (almost no effect)) | 3 (Herbicidal ratio of 40% or more and less than 70%) | 3 (Herbicidal ratio of 40% or more and less than 70%) | 4 (Herbicidal ratio of 70% or more and less than 90%) | 2 (Herbicidal ratio of 20% or more and less than 40%) | 0 (Herbicidal ratio of 5% or less (almost no effect)) |  |  |  |  |  | 
C#CCN(C)c1nnc2c(C(=O)Nc3nnco3)ccc(C(F)(F)F)n12 [1-163] |  |  | 4 (Herbicidal ratio of 70% or more and less than 90%) |  | 2 (Herbicidal ratio of 20% or more and less than 40%) | 4 (Herbicidal ratio of 70% or more and less than 90%) | 2 (Herbicidal ratio of 20% or more and less than 40%) | 4 (Herbicidal ratio of 70% or more and less than 90%) | 4 (Herbicidal ratio of 70% or more and less than 90%) | 4 (Herbicidal ratio of 70% or more and less than 90%) |  |  |  |  |  | 
CN(CCC#N)c1nnc2c(C(=O)Nc3nnco3)ccc(C(F)(F)F)n12 [1-164] | 4 (Herbicidal ratio of 70% or more and less than 90%) | 4 (Herbicidal ratio of 70% or more and less than 90%) | 4 (Herbicidal ratio of 70% or more and less than 90%) |  | 3 (Herbicidal ratio of 40% or more and less than 70%) |  |  | 5 (Herbicidal ratio of 90% or more (almost completely withered)) | 5 (Herbicidal ratio of 90% or more (almost completely withered)) | 4 (Herbicidal ratio of 70% or more and less than 90%) |  |  |  |  |  | 
C=CCN(C)c1nnc2c(C(=O)Nc3nnc(C)o3)ccc(C(F)(F)F)n12 [1-166] | 3 (Herbicidal ratio of 40% or more and less than 70%) |  | 2 (Herbicidal ratio of 20% or more and less than 40%) |  | 0 (Herbicidal ratio of 5% or less (almost no effect)) | 4 (Herbicidal ratio of 70% or more and less than 90%) |  | 4 (Herbicidal ratio of 70% or more and less than 90%) | 3 (Herbicidal ratio of 40% or more and less than 70%) | 2 (Herbicidal ratio of 20% or more and less than 40%) |  |  |  |  |  | 
Cc1nnc(NC(=O)c2ccc(C(F)(F)F)n3c(CC#N)nnc23)o1 [1-168] | 2 (Herbicidal ratio of 20% or more and less than 40%) |  | 2 (Herbicidal ratio of 20% or more and less than 40%) |  |  | 5 (Herbicidal ratio of 90% or more (almost completely withered)) | 5 (Herbicidal ratio of 90% or more (almost completely withered)) | 3 (Herbicidal ratio of 40% or more and less than 70%) |  |  |  |  |  |  |  | 
COCCc1nnc2c(C(=O)Nc3nnc(C)o3)ccc(C(F)(F)F)n12 [1-173] | 2 (Herbicidal ratio of 20% or more and less than 40%) | 2 (Herbicidal ratio of 20% or more and less than 40%) | 3 (Herbicidal ratio of 40% or more and less than 70%) |  |  | 5 (Herbicidal ratio of 90% or more (almost completely withered)) | 4 (Herbicidal ratio of 70% or more and less than 90%) | 5 (Herbicidal ratio of 90% or more (almost completely withered)) |  |  |  |  |  |  |  | 
Cn1nnnc1NC(=O)c1ccc(C(F)(F)F)n2c(SC3CCCC3)nnc12 [2-096] | 3 (Herbicidal ratio of 40% or more and less than 70%) | 3 (Herbicidal ratio of 40% or more and less than 70%) | 3 (Herbicidal ratio of 40% or more and less than 70%) |  | 3 (Herbicidal ratio of 40% or more and less than 70%) |  |  |  | 5 (Herbicidal ratio of 90% or more (almost completely withered)) | 4 (Herbicidal ratio of 70% or more and less than 90%) | 4 (Herbicidal ratio of 70% or more and less than 90%) | 3 (Herbicidal ratio of 40% or more and less than 70%) | 5 (Herbicidal ratio of 90% or more (almost completely withered)) |  |  | 
Cn1nnnc1NC(=O)c1ccc(C(F)(F)F)n2c(SCc3ccc(Cl)nc3)nnc12 [2-097] | 2 (Herbicidal ratio of 20% or more and less than 40%) | 2 (Herbicidal ratio of 20% or more and less than 40%) | 0 (Herbicidal ratio of 5% or less (almost no effect)) |  | 1 (Herbicidal ratio of 5% or more and less than 20%) |  |  |  | 4 (Herbicidal ratio of 70% or more and less than 90%) | 3 (Herbicidal ratio of 40% or more and less than 70%) | 4 (Herbicidal ratio of 70% or more and less than 90%) | 4 (Herbicidal ratio of 70% or more and less than 90%) | 3 (Herbicidal ratio of 40% or more and less than 70%) |  |  | 
CCSc1nnc2c(C(=O)Nc3nnnn3CCOC)ccc(C(F)(F)F)n12 [2-098] | 4 (Herbicidal ratio of 70% or more and less than 90%) | 3 (Herbicidal ratio of 40% or more and less than 70%) | 5 (Herbicidal ratio of 90% or more (almost completely withered)) |  |  |  |  |  |  |  | 5 (Herbicidal ratio of 90% or more (almost completely withered)) | 4 (Herbicidal ratio of 70% or more and less than 90%) | 5 (Herbicidal ratio of 90% or more (almost completely withered)) | 2 (Herbicidal ratio of 20% or more and less than 40%) | 5 (Herbicidal ratio of 90% or more (almost completely withered)) | 4 (Herbicidal ratio of 70% or more and less than 90%)
CCSc1nnc2c(C(=O)Nc3ncnn3C)ccc(C(F)(F)F)n12 [4-003] |  |  |  |  |  |  |  |  |  |  | 4 (Herbicidal ratio of 70% or more and less than 90%) | 2 (Herbicidal ratio of 20% or more and less than 40%) | 2 (Herbicidal ratio of 20% or more and less than 40%) | 0 (Herbicidal ratio of 5% or less (almost no effect)) | 2 (Herbicidal ratio of 20% or more and less than 40%) | 0 (Herbicidal ratio of 5% or less (almost no effect))
